Assay [1] deals with spontaneous recurrent seizures. Briefly: SE-induced epilepsy: spontaneous recurrent seizures by video-EEG after 3 days of treatment following KA-SE. It is filed as in vivo, mouse. The note with it: for animals with initial spontaneous seizure within 3 days following SE: 10 mg/kg i.v. x3, n=8; for number of spontaneous seizures: n=8, mean±SEM; for spontaneous recurrent seizures per animal (range): for pY816 the six animals with seizures. As to the method:
Surgery and microinfusion studies provided in Examples 10-14 were performed as described here. Surgery and microinfusion of KA into right amygdala of adult mice was performed as previously described (Liu, G. et al., (2013) Neuron 79:31-38). Briefly, mice were anesthetized with pentobarbital (60 mg/kg, intraperitoneally [i.p.]) and placed in a stereotaxic frame. A guide cannula was stereotactically placed above the right amygdala (coordinates from bregma: AP=−1.2 mm; ML=3.0 mm). A bipolar electrode was placed in the left dorsal hippocampus (coordinates from bregma: AP=−2.0 mm; ML=−1.6 mm; DV=−1.5 mm). A ground electrode connected to a screw was placed in the skull above the cerebellum. After a postoperative recovery period of 7 days, the animal was gently restrained and an infusion cannula was inserted into the right amygdala through the guide cannula at the depth of 3.7 mm below dura. Either KA (0.3 μg in 0.5 μl PBS) or vehicle control (0.5 μl of PBS) was infused into the right basolateral amygdala at the rate of 0.11 μl per minute. The infusion cannula was left in the right amygdala for two additional minutes before being withdrawn from the guide cannula. Animals were housed individually for time locked electroencephalogram (EEG) telemetry and video monitoring with food and water ad libitum.
Emergence of SE was typically evident in EEG recordings 5-10 min after KA infusion. The behavioral seizures associated with electrographic seizures typically consisted of immobility, followed by facial automatisms, unilateral or bilateral forelimb clonus, and whole body clonus. Tonic-clonic seizures with loss of posture and jumping also occurred during the seizures (Mouri, G. et al., (2008) Brain Res 1213:140-151). For experiments in which p816 or Scr was administered prior to SE, mice were monitored for 45 min following KA infusion. EEG patterns consistent with electrographic SE included any of the following: 1. discrete electrographic seizures; 2. waxing and waning epileptiform activity; 3. continuous, high amplitude, rapid spiking; 4. periodic epileptiform discharges on a relatively flat background as described by Treiman, D. M. et al., (1990) Epilepsy Res 5:49-60 and Walton, et. al., (1988) Exp Neurol 101:267-275. Behavioral patterns consistent with seizures included Classes 3-6 as described in the following section (Racine, R. J. (1972) Electroencephalogr Clin Neurophysiol 32:281-294; Borges, K. et al., (2003) Exp Neurol 182:21-34). The duration of behavioral and electrographic SE were determined by analyses of video and EEG data by trained observers blinded to treatment of mice. A similar method was used in experiments examining effects of mutations (trkB^PLC/PLC and PLCγ1^+/−) on SE induced by KA. For experiments in which p816 or Scr was administered following SE, diazepam (10 mg/kg, i.p.) was administered 40 minutes after the onset of SE followed by lorazepam (6 mg/kg, i.p.) one hour later to suppress SE and limit the mortality and morbidity of this model. Animals underwent continuous video-EEG monitoring 24 hr per day, 7 days per week for first two weeks post-SE (day 1-14). At the end of the second week post-SE, monitoring was discontinued and animals were returned to home cages. After a two-week interval, monitoring was resumed for an additional two weeks (day 29-42). Spontaneous recurrent seizures were identified by review of video-EEG files by independently by each of two trained readers blinded to treatment of mice. The consistency of identifying SRS between readers was ˜90%; in instances in which readers disagreed, the events were excluded from this study. SRS was defined electrographically as high frequency (>5 Hz), high amplitude (>2×baseline) rhythmic epileptiform activity with a minimal duration of 5 s and behaviorally with video-monitoring (see behavioral-seizure scoring). […]

Assay [2] has as its system TrkB-mediated activation of PLCγ1. The experiment in a line: BDNF-mediated activation of PLCγ1 (p-PLCγ1 Y783 western blot) in cultured cortical neurons. The note with it: for BDNF-mediated increase of p-PLC γ-1/PLC γ-1 ratio (quantified, FIG. 10): 10-120 min pretreatment, 120 min p<0.05; for inhibition of BDNF-mediated increased p-PLCγ1 783: preincubation 60-120 min, BDNF 10 ng/ml. It is filed as cell-based, rat.

For assay [3], the system named is ERK. Briefly: BDNF-mediated increase of p-ERK in cultured cortical neurons (western blot). It is filed as cell-based, rat. The note with it: 10 μM, 10-120 min pretreatment.
Assay [4] has as its system Akt. The experiment in a line: BDNF-mediated increase of p-Akt in cultured cortical neurons (western blot). The class given is cell-based, rat. The settings on record: 10 μM, 10-120 min pretreatment.
For assay [5], the system named is hippocampal neurons (CA3b). The experiment in a line: NeuN and GFAP immunostaining of hippocampal CA3b 10 weeks after SE. The class given is in vivo, mouse. The text has this:
Neurons and astrocytes were visualized using antibodies against neuronal nuclei (mouse monoclonal to NeuN, 1:500; Millipore) and glial fibrillary acidic protein (rabbit polyclonal to GFAP, 1:1000; Sigma) detected with Alexafluor 488 coupled anti-mouse and Alexafluor 594 coupled anti-rabbit secondary antibodies (Molecular Probes), respectively. Images were captured using a Leica TCS SL confocal microscopy system equipped with a 63× oil-immersion objective lens. NeuN-positive cell counting was performed by an investigator blinded to the genotype and treatment conditions with ImageJ software (Ferreira, T. et al., (2011). The Image J User Guide) in a 260×260 μm field within the CA3b pyramidal cell layer. Mean counts were obtained from two adjacent rostral and two adjacent middle hippocampal sections ipsilateral to the infused amygdala.
Ten weeks following SE, mice were anesthetized with pentobarbital (200 mg/kg, i.p.) and underwent intra-cardiac perfusion with PBS containing heparin (5 U/ml) followed by 4% paraformaldehyde. Brains were removed, frozen by slow immersion in isopentane chilled in dry ice, cryoprotected, and sectioned. Serial 40 μm coronal sections were cut through the forebrain spanning the entire hippocampus. Adjacent sections at two levels relative to bregma (˜1.68 mm posterior designated “rostral”) or (˜2.32 mm posterior designated “middle”) were stained for NeuN and GFAP as previously described (Mouri, G. et al., (2008) Brain Res 1213:140-151) and mean counts of NeuN positive cells were obtained from two adjacent rostral and two adjacent middle hippocampal sections ipsilateral to the infused amygdala by an observer blinded to treatment.

Data on two substances can be found in patent publication US11129870B2, “Compositions and methods for uncoupling TrkB receptor from PLC gamma 1 for the treatment of epilepsy and anxiety-like disorder” (DUKE UNIVERSITY, priority 2010, dated 2021).

Where no end group is shown, it is not given here. [ ]: non-standard residue; d: D form. pY = N[C@@H](Cc1ccc(OP(=O)(O)O)cc1)C(=O)O

On to “YGRKKRRQRRR-LQNLAKASPVpYLDI (YGRKKRRQRRRLQNLAKASPV[pY]LDI) [pY816]”, for which the “latency to the onset of the first spontaneous seizure” value in assay [1] (10 mg/kg i.v. immediately, 24 hr and 48 hr after SE, compared to control) is “delayed”. Moreover, in assay [1], the “animals with initial spontaneous seizure within 3 days following SE” value is given as “single”. In assay [1] (days 1-14 after SE), the “reduction in the number of spontaneous seizures compared to Scr” value was 86% and the “number of spontaneous seizures” value amounted to 2.4±0.6. In addition, in assay [1] (days 29-42 after SE), the “reduction in the number of spontaneous seizures compared to Scr” value was 90%, the “number of spontaneous seizures” value was found to be 1.5±0.4 and the “spontaneous recurrent seizures per animal (range)” value is given as 1-3 seizures. Besides, the “animals that exhibited no seizures” value in assay [1] (days 29-42 after SE, of eight treated) is “two”. Besides, in assay [2] (0.1 μM, 90 mins preincubation, BDNF 10 ng/ml 15 mins), the “inhibition of BDNF-mediated activation of PLCγ1 (pPLCγ1 783 immunoreactivity)” value is “did not inhibit”. The “inhibition of BDNF-induced increase of pPLCγ1 783” value in assay [2] (1 μM, 90 mins preincubation, BDNF 10 ng/ml 15 mins) is “limited the BDNF-induced increase of pPLCγ1 783 in a concentration dependent manner”. Besides, in assay [2] (10 μM), the “BDNF-mediated increase of p-PLC γ-1/PLC γ-1 ratio (quantified, FIG. 10)” value is listed as “inhibited the BDNF-mediated increase of p-PLC γ-1/PLC γ-1 ratio in a time dependent manner” and the “inhibition of BDNF-mediated increased p-PLCγ1 783” value is reported as “inhibited BDNF-mediated increased p-PLCγ1 783”. Moreover, in assay [2] (10 μM, 60 min preincubation, compared to Scr), the “inhibition of BDNF-mediated PLCγ1 activation” value stood at 68.2%. The “inhibition of BDNF mediated PLCγ1 activation” value in assay [2] (10 μM, 90 min preincubation, compared to Scr) is listed as 79.3%. The “inhibition of BDNF-induced increase of pPLCγ1 783” value in assay [2] (10 μM, 90 mins preincubation, BDNF 10 ng/ml 15 mins) was “limited the BDNF-induced increase of pPLCγ1 783 in a concentration dependent manner”. In addition, the “inhibition of BDNF-mediated PLCγ1 activation” value in assay [2] (10 μM, 120 min preincubation, compared to Scr) is on record as 94.5%. The “BDNF-mediated increase of the p-ERK/ERK ratio (quantified, FIG. 12)” value in assay [3] is “Neither the Phospho-Tat-TrkBY816 nor the Scr-phospho-Tat-TrkBY816 peptide inhibited”. In addition, the “BDNF-mediated increase of the p-Akt/Akt ratio (quantified, FIG. 11)” value in assay [4] is “Neither the Phospho-Tat-TrkBY816 nor the Scr-phospho-Tat-TrkBY816 peptide inhibited”. The “reactive gliosis (enlarged GFAP-immunoreactive cells) in CA3b” value in assay [5] is “attenuated”. Moreover, in assay [5] (compared to Scr treatment), the “reduction of neuron loss” value is reported as ~30%.
On to “YGRKKRRQRRRLVApYQLKIAPNDLS (YGRKKRRQRRRLVA[pY]QLKIAPNDLS) [Scr, reference compound]”, for which the “animals with initial spontaneous seizure within 3 days following SE” value in assay [1] is reported as 5 of 8. Besides, the “number of spontaneous seizures” value in assay [1] (days 1-14 after SE) came to 18.1±1.7. In addition, in assay [1] (days 29-42 after SE), the “number of spontaneous seizures” value amounted to 16.5±3.5 and the “spontaneous recurrent seizures per animal (range)” value is reported as 7-36 seizures. In assay [2] (10 μM), the “BDNF-mediated increase of p-PLC γ-1/PLC γ-1 ratio (quantified, FIG. 10)” value is “ineffective” and the “inhibition of BDNF-mediated increased p-PLCγ1 783” value is given as “no inhibition was evident”. In assay [3], the “BDNF-mediated increase of the p-ERK/ERK ratio (quantified, FIG. 12)” value is “Neither the Phospho-Tat-TrkBY816 nor the Scr-phospho-Tat-TrkBY816 peptide inhibited”. Further, in assay [4], the “BDNF-mediated increase of the p-Akt/Akt ratio (quantified, FIG. 11)” value was “Neither the Phospho-Tat-TrkBY816 nor the Scr-phospho-Tat-TrkBY816 peptide inhibited”. For the same substance, in assay [5] (compared to PBS-infused controls), the “reduction of neurons (NeuN immunoreactive cells) in CA3b hippocampus” value is given as ~50%.
